Like-named read-outs stand apart in the source and are kept apart here. Where a SMILES comes first, the peptide text is derived from it. Bridges are numbered along the chain shown (N, C = ends). [ ]: non-standard residue; d: D form. R8 = C=CCCCCCC[C@@](C)(N)C(=O)O; S5 = C=CCCC[C@](C)(N)C(=O)O
Test: Plasma concentration after tail-vein injection (toxicokinetics);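 for SAH-EJ1 concentration in plasma, average: blood sampled on day 1 after the tail-vein injection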
Format: in vivo, CD-1 mice
Details: for level at 0.5 h / level at 1 h: average ± SD, read-out: SAH-EJ1 concentration in plasma, average
Description: Toxicology was performed by IITRI. The study was conducted in compliance with the US Food and Drug Administration (FDA) good laboratory practice (GLP) Regulations (Code of Federal Regulations Title 21 Part 58) to evaluate the toxicokinetics, local tolerability, immunogenicity, and potential toxicity of SAH5-EJ1 following three times per week intravenous (IV) dosing for 28 days in mice. Male and female CD-1 IGS [Crl:CD1(ICR)] mice (135 per sex) were received from Wilmington, MA-based Charles River Laboratories, Inc.’s Kingston facility (Stone Ridge, NY).

CC[C@H](C)[C@H](NC(=O)[C@H](Cc1c[nH]cn1)NC(=O)[C@H](CCCNC(=N)N)NC(=O)[C@H](CCCNC(=N)N)NC(=O)[C@H](CCCNC(=N)N)NC(=O)[C@H](CCSC)NC(=O)[C@H](Cc1ccccc1)NC(=O)[C@H](C)NC(=O)[C@H](CCCNC(=N)N)NC(=O)[C@H](C)NC(=O)[C@H](CCC(N)=O)NC(=O)[C@H](CCCNC(=N)N)NC(=O)[C@H](C)NC(=O)[C@H](C)NC(=O)[C@H](C)NC(=O)[C@H](CCCNC(=N)N)NC(=O)[C@H](C)NC(=O)[C@@H](N)Cc1ccc(O)cc1)C(=O)N[C@H](C(=O)N[C@@H](CCCNC(=N)N)C(=O)N[C@@H](CCCCN)C(=O)N[C@@H](CCCNC(=N)N)C(=O)N[C@]1(C)CCCCCCC=CCCC[C@@](C)(C(=O)N[C@@H](CCCNC(=N)N)C(=O)N[C@@H](CCC(=O)O)C(N)=O)NC(=O)[C@H](CCC(N)=O)NC(=O)[C@H](CC(C)C)NC(=O)[C@H](CC(C)C)NC(=O)[C@H](CCCNC(=N)N)NC(=O)[C@H](CCCNC(=N)N)NC(=O)[C@H](CC(C)C)NC1=O)C(C)C [SAH5-EJ1] (H-YARAAARQARAFMRRRHIVRKR[R8]LRRLLQ[S5]RE-NH2; staple 23-30)
level at 0.5 h (CD-1, mouse, plasma, female, 10 mg/kg IV, day 1, 0.5 h): 562 ± 47 ng/mL
level at 1 h (CD-1, mouse, plasma, female, 10 mg/kg IV, day 1, 1 h): 542 ± 33 ng/mL
level at 0.5 h (CD-1, mouse, plasma, female, 15 mg/kg IV, day 1, 0.5 h): 554 ± 64 ng/mL
level at 1 h (CD-1, mouse, plasma, female, 15 mg/kg IV, day 1, 1 h): 569 ± 27 ng/mL
level at 0.5 h (CD-1, mouse, plasma, male, 10 mg/kg IV, day 1, 0.5 h): 638 ± 110 ng/mL
level at 1 h (CD-1, mouse, plasma, male, 10 mg/kg IV, day 1, 1 h): 665 ± 150 ng/mL
level at 0.5 h (CD-1 IGS [Crl:CD1(ICR)], mouse, plasma, female, 5 mg/kg IV, day 1, 0.5 h): 569 ± 19 ng/mL
level at 1 h (CD-1 IGS [Crl:CD1(ICR)], mouse, plasma, female, 5 mg/kg IV, day 1, 1 h): 529 ± 30 ng/mL
level at 0.5 h (CD-1 IGS [Crl:CD1(ICR)], mouse, plasma, male, 5 mg/kg IV, day 1, 0.5 h): 1020 ± 350 ng/mL
level at 1 h (CD-1 IGS [Crl:CD1(ICR)], mouse, plasma, male, 5 mg/kg IV, day 1, 1 h): 576 ± 39 ng/mL
level at 0.5 h (CD-1 IGS [Crl:CD1(ICR)], mouse, plasma, male, 15 mg/kg IV, day 1, 0.5 h): 901 ± 160 ng/mL
level at 1 h (CD-1 IGS [Crl:CD1(ICR)], mouse, plasma, male, 15 mg/kg IV, day 1, 1 h): 657 ± 37 ng/mL
level at 2 h (CD-1 IGS [Crl:CD1(ICR)], plasma, male, 15 mg/kg IV, day 1, 2 h, mouse 2 of 3, read-out: SAH-EJ1 concentration in plasma): 551 ng/mL
time by which peptide was not detectable in plasma (female mice, highest body weight dosage): ≤ 2 h
SAH-EJ1 concentration in plasma (female, 5 mg/kg IV, day 1, 1 h, mouse 1 of 3): BQL (BQL represents below quantifiable limits (0.5 µg/mL))
SAH-EJ1 concentration in plasma (female, 5 mg/kg IV, day 1, 2 h, mouse 1 of 3): BQL (BQL represents below quantifiable limits (0.5 µg/mL))
SAH-EJ1 concentration in plasma (female, 5 mg/kg IV, day 1, 2 h, mouse 2 of 3): BQL (BQL represents below quantifiable limits (0.5 µg/mL))
SAH-EJ1 concentration in plasma (female, 5 mg/kg IV, day 1, 2 h, mouse 3 of 3): BQL (BQL represents below quantifiable limits (0.5 µg/mL))
SAH-EJ1 concentration in plasma (female, 5 mg/kg IV, day 1, 4 h, mouse 1 of 3): BQL (BQL represents below quantifiable limits (0.5 µg/mL))
SAH-EJ1 concentration in plasma (female, 5 mg/kg IV, day 1, 4 h, mouse 2 of 3): BQL (BQL represents below quantifiable limits (0.5 µg/mL))
SAH-EJ1 concentration in plasma (female, 5 mg/kg IV, day 1, 4 h, mouse 3 of 3): BQL (BQL represents below quantifiable limits (0.5 µg/mL))
SAH-EJ1 concentration in plasma (female, 5 mg/kg IV, day 1, 8 h, mouse 1 of 3): BQL (BQL represents below quantifiable limits (0.5 µg/mL))
SAH-EJ1 concentration in plasma (female, 5 mg/kg IV, day 1, 8 h, mouse 2 of 3): BQL (BQL represents below quantifiable limits (0.5 µg/mL))
SAH-EJ1 concentration in plasma (female, 5 mg/kg IV, day 1, 8 h, mouse 3 of 3): BQL (BQL represents below quantifiable limits (0.5 µg/mL))
SAH-EJ1 concentration in plasma (female, 5 mg/kg IV, day 1, 24 h, mouse 1 of 3): BQL (BQL represents below quantifiable limits (0.5 µg/mL))
SAH-EJ1 concentration in plasma (female, 5 mg/kg IV, day 1, 24 h, mouse 2 of 3): BQL (BQL represents below quantifiable limits (0.5 µg/mL))
SAH-EJ1 concentration in plasma (female, 5 mg/kg IV, day 1, 24 h, mouse 3 of 3): BQL (BQL represents below quantifiable limits (0.5 µg/mL))
SAH-EJ1 concentration in plasma (female, 10 mg/kg IV, day 1, 1 h, mouse 2 of 3): BQL (BQL represents below quantifiable limits (0.5 µg/mL))
SAH-EJ1 concentration in plasma (female, 10 mg/kg IV, day 1, 2 h, mouse 1 of 3): BQL (BQL represents below quantifiable limits (0.5 µg/mL))
SAH-EJ1 concentration in plasma (female, 10 mg/kg IV, day 1, 2 h, mouse 2 of 3): BQL (BQL represents below quantifiable limits (0.5 µg/mL))
SAH-EJ1 concentration in plasma (female, 10 mg/kg IV, day 1, 2 h, mouse 3 of 3): BQL (BQL represents below quantifiable limits (0.5 µg/mL))
SAH-EJ1 concentration in plasma (female, 10 mg/kg IV, day 1, 4 h, mouse 1 of 3): BQL (BQL represents below quantifiable limits (0.5 µg/mL))
SAH-EJ1 concentration in plasma (female, 10 mg/kg IV, day 1, 4 h, mouse 2 of 3): BQL (BQL represents below quantifiable limits (0.5 µg/mL))
SAH-EJ1 concentration in plasma (female, 10 mg/kg IV, day 1, 4 h, mouse 3 of 3): BQL (BQL represents below quantifiable limits (0.5 µg/mL))
SAH-EJ1 concentration in plasma (female, 10 mg/kg IV, day 1, 8 h, mouse 1 of 3): BQL (BQL represents below quantifiable limits (0.5 µg/mL))
SAH-EJ1 concentration in plasma (female, 10 mg/kg IV, day 1, 8 h, mouse 2 of 3): BQL (BQL represents below quantifiable limits (0.5 µg/mL))
SAH-EJ1 concentration in plasma (female, 10 mg/kg IV, day 1, 8 h, mouse 3 of 3): BQL (BQL represents below quantifiable limits (0.5 µg/mL))
SAH-EJ1 concentration in plasma (female, 10 mg/kg IV, day 1, 24 h, mouse 1 of 3): BQL (BQL represents below quantifiable limits (0.5 µg/mL))
SAH-EJ1 concentration in plasma (female, 10 mg/kg IV, day 1, 24 h, mouse 2 of 3): BQL (BQL represents below quantifiable limits (0.5 µg/mL))
SAH-EJ1 concentration in plasma (female, 10 mg/kg IV, day 1, 24 h, mouse 3 of 3): BQL (BQL represents below quantifiable limits (0.5 µg/mL))
SAH-EJ1 concentration in plasma (female, 15 mg/kg IV, day 1, 0.5 h, mouse 3 of 3): BQL (BQL represents below quantifiable limits (0.5 µg/mL))
SAH-EJ1 concentration in plasma (female, 15 mg/kg IV, day 1, 1 h, mouse 2 of 3): BQL (BQL represents below quantifiable limits (0.5 µg/mL))
SAH-EJ1 concentration in plasma (female, 15 mg/kg IV, day 1, 2 h, mouse 1 of 3): BQL (BQL represents below quantifiable limits (0.5 µg/mL))
SAH-EJ1 concentration in plasma (female, 15 mg/kg IV, day 1, 2 h, mouse 2 of 3): BQL (BQL represents below quantifiable limits (0.5 µg/mL))
SAH-EJ1 concentration in plasma (female, 15 mg/kg IV, day 1, 2 h, mouse 3 of 3): BQL (BQL represents below quantifiable limits (0.5 µg/mL))
SAH-EJ1 concentration in plasma (female, 15 mg/kg IV, day 1, 4 h, mouse 1 of 3): BQL (BQL represents below quantifiable limits (0.5 µg/mL))
SAH-EJ1 concentration in plasma (female, 15 mg/kg IV, day 1, 4 h, mouse 2 of 3): BQL (BQL represents below quantifiable limits (0.5 µg/mL))
SAH-EJ1 concentration in plasma (female, 15 mg/kg IV, day 1, 4 h, mouse 3 of 3): BQL (BQL represents below quantifiable limits (0.5 µg/mL))
SAH-EJ1 concentration in plasma (female, 15 mg/kg IV, day 1, 8 h, mouse 1 of 3): BQL (BQL represents below quantifiable limits (0.5 µg/mL))
SAH-EJ1 concentration in plasma (female, 15 mg/kg IV, day 1, 8 h, mouse 2 of 3): BQL (BQL represents below quantifiable limits (0.5 µg/mL))

From paper PMC6582486, “Stapled EGFR peptide reduces inflammatory breast cancer and inhibits additional HER-driven models of cancer” (Journal of Translational Medicine, 2019)
